In patent publication US11548888B2, “KRas G12C inhibitors” (Mirati Therapeutics, Inc., priority 2019, dated 2023):
pIC50: −log10 of the molar value.

molecular target: T1, KRas G12C (Homo sapiens, UniProt P01116, G12C); assay: Inhibition of KRas G12C-dependent cell growth: Phospho-ERK in NCI-H358 cells; format: cell-based; conditions: NCI-H358 cells expressing KRas G12C; Phospho-ERK (Thr202/Tyr204) normalized to GAPDH; 3 hours compound; 4 parameter fit
T1 construct: NCI-H358 cells (ATCC CRL-5807) express KRas G12C
T1 sequence (P01116 1-188 isoform P01116-2 G12C): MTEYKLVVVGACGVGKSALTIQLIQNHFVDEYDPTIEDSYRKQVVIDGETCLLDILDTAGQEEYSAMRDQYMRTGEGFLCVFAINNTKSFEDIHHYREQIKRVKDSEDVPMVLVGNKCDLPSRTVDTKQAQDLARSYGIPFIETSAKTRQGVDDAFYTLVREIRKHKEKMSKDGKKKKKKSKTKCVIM
Summary of the method: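 Phospho-ERK read-out in KRas G12C-expressing NCI-H358 cells after 3 h compound treatment (final DMSO 0.5%), by in-cell infrared immunodetection. Signal normalized to GAPDH and to DMSO controls. 4-parameter curve fit gave IC50.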

SMILES | pIC50
C=C(F)C(=O)N1CCN(c2nc(OC[C@H]3[C@@H](F)CCN3C)nc3c(F)c(-c4cccc5ccc(F)c(Cl)c45)ncc23)C[C@@H]1CC#N [Example 177] | 7.29
C=CC(=O)N1CCN(c2ncnc3c(F)c(-c4cc(O)cc5cccc(Cl)c45)ncc23)CC1 [Example 178] | 7.20
C=C(F)C(=O)N1CCN(c2nc(OCC34CCCN3C[C@H](F)C4)nc3c(F)c(-c4cccc5ccc(F)c(Cl)c45)ncc23)C[C@@H]1CC#N (some centres unmarked) [Example 181] | 8.40
C=C(F)C(=O)N1CCN(c2nc(OC[C@@H]3CCCN3CCF)nc3c(F)c(-c4cccc5ccc(F)c(Cl)c45)ncc23)C[C@@H]1CC#N [Example 182] | 7.57
C=CC(=O)N1CCN(c2ncnc3c(F)c(-c4cccc5ccc(F)c(Cl)c45)ncc23)C[C@@H]1CC(F)F [Example 183] | 5.00
C=CC(=O)N1CCN(c2nc(OC[C@@H]3CCCN3C)nc3c(F)c(-c4ccccc4F)ncc23)CC1 [Example 184] | 5.00
C=C(F)C(=O)N1CCN(c2nc(OC[C@@H]3CCCN3CC(F)F)nc3c(F)c(-c4cccc5ccc(F)c(Cl)c45)ncc23)C[C@@H]1CC#N [Example 185] | 6.84
C=CC(=O)N1CCN(c2ncnc3c(F)c(-c4ccccc4F)ncc23)[C@@H](C)C1 [Example 186] | 5.00
C=CC(=O)N1CCN(c2nc(N3CCC3)nc3c(F)c(-c4cccc5ccc(F)c(Cl)c45)ncc23)C[C@@H]1CC#N [Example 187] | 7.13
C=C(F)C(=O)N1CCN(c2nc(OCC34CCCN3C(CF)CC4)nc3c(F)c(-c4cccc5ccc(F)c(Cl)c45)ncc23)C[C@@H]1CC#N (some centres unmarked) [Example 188] | 7.54
C=CC(=O)N1C[C@@H]2[C@H]1CCN2c1ncnc2c(F)c(-c3cccc4ccc(F)c(Cl)c34)ncc12 [Example 190] | 5.00
C=C(F)C(=O)N1CCN(c2nc(OC[C@@H]3[C@H]4C[C@H]4CN3C)nc3c(F)c(-c4cccc5ccc(F)c(Cl)c45)ncc23)C[C@@H]1CC#N [Example 191] | 7.82
C=C(F)C(=O)N1CCN(c2nc(OC[C@@H]3[C@@H]4C[C@@H]4CN3C)nc3c(F)c(-c4cccc5ccc(F)c(Cl)c45)ncc23)C[C@@H]1CC#N [Example 192] | 7.42
C=C(F)C(=O)N1CCN(c2nc(OC[C@H]3CN(C)C[C@H]3F)nc3c(F)c(-c4cccc5ccc(F)c(Cl)c45)ncc23)C[C@@H]1CC#N [Example 193] | 7.17
C=C(F)C(=O)N1CCN(c2nc(OC[C@@H]3CN(C)C[C@@H]3F)nc3c(F)c(-c4cccc5ccc(F)c(Cl)c45)ncc23)C[C@@H]1CC#N [Example 194] | 7.19
C=C(F)C(=O)N1CCN(c2nc(OC[C@H]3[C@@H]4CC[C@@H](C4)N3CCF)nc3c(F)c(-c4cccc5ccc(F)c(Cl)c45)ncc23)C[C@@H]1CC#N [Example 195] | 7.51
C=C(F)C(=O)N1CCN(c2nc(OC[C@H]3[C@@H]4CC[C@@H](C4)N3CC(F)F)nc3c(F)c(-c4cccc5ccc(F)c(Cl)c45)ncc23)C[C@@H]1CC#N [Example 196] | 5.76
C=CC(=O)N1CCN(c2ncnc3c(F)c(-c4cccc5ccc(F)cc45)ncc23)C[C@@H]1CC#N [Example 197] | 6.78
C=CC(=O)N1CCN(c2ncnc3c(F)c(-c4c(C)c(C)cc5[nH]ncc45)ncc23)CC1 [Example 198] | 5.10

Second part, the compound after the results:

pIC50 | SMILES
5.47 | C=CC(=O)N1CCN(c2nc(C(F)(F)F)nc3c(F)c(-c4cccc5ccc(F)c(Cl)c45)ncc23)C[C@@H]1CC#N [Example 199]
6.39 | CN(C)CC#CC(=O)N1CCN(c2ncnc3c(F)c(-c4cccc5ccc(F)c(Cl)c45)ncc23)CC1 [Example 200]
5.00 | CC#CC(=O)N1CCN(c2ncnc3c(F)c(-c4cccc5ccc(F)c(Cl)c45)ncc23)CC1 [Example 201]
5.00 | C=CS(=O)(=O)N1CCN(c2ncnc3c(F)c(-c4cccc5ccc(F)c(Cl)c45)ncc23)CC1 [Example 205]
5.77 | C=CC(=O)N1CCN(c2nc(C)nc3c(F)c(-c4cc(O)cc5ccccc45)ncc23)CC1 [Example 206]
5.16 | C=C(F)C(=O)N1CCN(c2nc(Oc3cccc4c3CCN(C)C4)nc3c(F)c(-c4cccc5ccc(F)c(Cl)c45)ncc23)C[C@@H]1CC#N [Example 207]
8.40 | C=C(F)C(=O)N1CCN(c2nc(OCC3(C)C(OC)CN3C)nc3c(F)c(-c4cccc5ccc(F)c(Cl)c45)ncc23)C[C@@H]1CC#N (some centres unmarked) [Example 208]
7.34 | C=C(F)C(=O)N1CCN(c2nc(OC[C@@H]3CCCN3C3CC3)nc3c(F)c(-c4cccc5ccc(F)c(Cl)c45)ncc23)C[C@@H]1CC#N [Example 209]
7.31 | C=C(F)C(=O)N1CCN(c2nc(OC[C@@H]3CC(F)(F)CN3C)nc3c(F)c(-c4cccc5ccc(F)c(Cl)c45)ncc23)C[C@@H]1CC#N [Example 210]
8.70 | C=C(F)C(=O)N1CCN(c2nc(OC[C@@H]3CCCN3C)nc3c(O)c(-c4cccc5cccc(C)c45)ncc23)C[C@@H]1CC#N [Example 211, 2-((S)-1-(2-fluoroacryloyl)-4-(8-hydroxy-7-(8-methylnaphthalen-1-yl)-2-(((S)-1-methylpyrrolidin-2-yl)methoxy)pyrido[4,3-d]pyrimidin-4-yl)piperazin-2-yl)acetonitrile]
8.15 | C#Cc1cccc2cccc(-c3ncc4c(N5CCN(C(=O)C(=C)F)[C@@H](CC#N)C5)nc(OC[C@@H]5CCCN5C)nc4c3F)c12 [Example 212, 2-((S)-4-(7-(8-ethynylnaphthalen-1-yl)-8-fluoro-2-(((S)-1-methylpyrrolidin-2-yl)methoxy)pyrido[4,3-d]pyrimidin-4-yl)-1-(2-fluoroacryloyl)piperazin-2-yl)acetonitrile]
7.21 | C#Cc1cccc2cccc(-c3ncc4c(N5CCN(C(=O)C=C)CC5)nc(OC[C@@H]5CCCN5C)nc4c3F)c12 [Example 213, (S)-1-(4-(7-(8-ethynylnaphthalen-1-yl)-8-fluoro-2-((1-methylpyrrolidin-2-yl)methoxy)pyrido[4,3-d]pyrimidin-4-yl)piperazin-1-yl)prop-2-en-1-one]
5.68 | C#Cc1cccc2cccc(-c3ncc4c(N5CCN(C(=O)C=C)CC5)ncnc4c3F)c12 [Example 214, 1-(4-(7-(8-ethynylnaphthalen-1-yl)-8-fluoropyrido[4,3-d]pyrimidin-4-yl)piperazin-1-yl)prop-2-en-1-one]
7.51 | C#Cc1cccc2cc(O)cc(-c3ncc4c(N5CCN(C(=O)C=C)CC5)ncnc4c3F)c12 [Example 215, 1-(4-(7-(8-ethynyl-3-hydroxynaphthalen-1-yl)-8-fluoropyrido[4,3-d]pyrimidin-4-yl)piperazin-1-yl)prop-2-en-1-one]
6.92 | C=C(F)C(=O)N1CCN(c2nc(OCC34CCCN3C(CO)CC4)nc3c(F)c(-c4cccc5ccc(F)c(Cl)c45)ncc23)C[C@@H]1CC#N (some centres unmarked) [Example 216, 2-((2 S)-4-(7-(8-chloro-7-fluoronaphthalen-1-yl)-8-fluoro-2-((3-(hydroxymethyl)tetrahydro-1H-pyrrolizin-7a(5H)-yl)methoxy)pyrido[4,3-d]pyrimidin-4-yl)-1-(2-fluoroacryloyl)piperazin-2-yl)acetonitrile]
7.96 | C=C(F)C(=O)N1CCN(c2nc(OCC3CCC4(CO)CCCN34)nc3c(F)c(-c4cccc5ccc(F)c(Cl)c45)ncc23)C[C@@H]1CC#N (stereo partly drawn) [Example 217, 2-((2S)-4-(7-(8-chloro-7-fluoronaphthalen-1-yl)-8-fluoro-2-((7a-(hydroxymethyl)hexahydro-1H-pyrrolizin-3-yl)methoxy)pyrido[4,3-d]pyrimidin-4-yl)-1-(2-fluoroacryloyl)piperazin-2-yl)acetonitrile]
6.15 | C=CC(=O)N1CCN(c2ncnc3c(F)c(-c4cc(O)cc5ccccc45)ncc23)CC1 [Example 218, 1-(4-(8-fluoro-7-(3-hydroxynaphthalen-1-yl)pyrido[4,3-d]pyrimidin-4-yl)piperazin-1-yl)prop-2-en-1-one]
6.27 | C=CC(=O)N1CCN(c2nc(C3CC3)nc3c(F)c(-c4cccc5ccc(F)c(Cl)c45)ncc23)C[C@@H]1CC#N [Example 219, (S)-2-(1-acryloyl-4-(7-(8-chloro-7-fluoronaphthalen-1-yl)-2-cyclopropyl-8-fluoropyrido[4,3-d]pyrimidin-4-yl)piperazin-2-yl)acetonitrile]
7.66 | C=CC(=O)N1CCN(c2ncnc3c(F)c(-c4cc(O)cc5ccccc45)ncc23)C[C@@H]1CC#N [Example 220, (S)-2-(1-acryloyl-4-(8-fluoro-7-(3-hydroxynaphthalen-1-yl)pyrido[4,3-d]pyrimidin-4-yl)piperazin-2-yl)acetonitrile]
5.71 | O=C(/C=C/CF)N1CC[C@@H]2[C@H]1CN2c1ncnc2c(F)c(-c3cccc4ccc(F)c(Cl)c34)ncc12 [Example 221]
5.00 | C=CC(=O)N1CCN(c2ncnc3c(F)c(-c4ccccc4C(C)C)ncc23)CC1 [Example 222]
5.00 | C=CC(=O)N1CCN(c2ncnc3c(F)c(-c4cccc5ccccc45)ncc23)CC1 [Example 223]
5.00 | C=CC(=O)N1CCN(c2ncnc3c(F)c(-c4ccccc4C4CC4)ncc23)CC1 [Example 224]
5.31 | C=CC(=O)N1CCN(c2ncnc3c(F)c(-c4c(O)ccc5ccccc45)ncc23)CC1 [Example 225]
8.30 | C=CC(=O)N1CC[C@@H]2[C@H]1CN2c1nc(OCC23CCCN2CCC3)nc2c(F)c(-c3cccc4ccc(F)c(Cl)c34)ncc12 [Example 227]
6.64 | C=CC(=O)N1C[C@@H]2[C@H]1CCN2c1nc(OC[C@@H]2CCCN2C)nc2c(F)c(-c3cccc4ccc(F)c(Cl)c34)ncc12 [Example 228]
9.00 | C=C(F)C(=O)N1CCN(c2nc(OC[C@@]34CCCN3C[C@H](F)C4)nc3c(F)c(-c4cccc5ccc(F)c(Cl)c45)ncc23)C[C@@H]1CC#N [Example 229]
5.73 | C=C(F)C(=O)N1CCN(c2nc(OCCNC(=O)C(C)C)nc3c(F)c(-c4cccc5ccc(F)c(Cl)c45)ncc23)C[C@@H]1CC#N [Example 230]
